Target: Mitogen-activated protein kinase kinase kinase kinase 1 (Homo sapiens, UniProt Q92918)
Experiment: Biochemical Enzyme Assay
Method: HPK1 biochemical enzyme assay: HPK1 enzyme inhibition was measured using a microfluidic mobility shift assay. […] Test compounds were titrated in ten point curves (top final assay concentration […]), and preincubated with enzyme/substrate mix for 30 min prior to initiation of the reaction by addition of ATP (1 mM final concentration) and substrate ([…] final concentration; Carna Biosciences) diluted in assay buffer supplemented by MgCl2 (final assay concentration of 5 mM). Following 60 min incubation at RT, the reaction was terminated by addition of 60 µl/well termination buffer (Carna Biosciences) and signal determination using a Caliper EZ Reader (Perkin Elmer, UK).

Mitogen-activated protein kinase kinase kinase kinase 1, sequence (Q92918 whole entry): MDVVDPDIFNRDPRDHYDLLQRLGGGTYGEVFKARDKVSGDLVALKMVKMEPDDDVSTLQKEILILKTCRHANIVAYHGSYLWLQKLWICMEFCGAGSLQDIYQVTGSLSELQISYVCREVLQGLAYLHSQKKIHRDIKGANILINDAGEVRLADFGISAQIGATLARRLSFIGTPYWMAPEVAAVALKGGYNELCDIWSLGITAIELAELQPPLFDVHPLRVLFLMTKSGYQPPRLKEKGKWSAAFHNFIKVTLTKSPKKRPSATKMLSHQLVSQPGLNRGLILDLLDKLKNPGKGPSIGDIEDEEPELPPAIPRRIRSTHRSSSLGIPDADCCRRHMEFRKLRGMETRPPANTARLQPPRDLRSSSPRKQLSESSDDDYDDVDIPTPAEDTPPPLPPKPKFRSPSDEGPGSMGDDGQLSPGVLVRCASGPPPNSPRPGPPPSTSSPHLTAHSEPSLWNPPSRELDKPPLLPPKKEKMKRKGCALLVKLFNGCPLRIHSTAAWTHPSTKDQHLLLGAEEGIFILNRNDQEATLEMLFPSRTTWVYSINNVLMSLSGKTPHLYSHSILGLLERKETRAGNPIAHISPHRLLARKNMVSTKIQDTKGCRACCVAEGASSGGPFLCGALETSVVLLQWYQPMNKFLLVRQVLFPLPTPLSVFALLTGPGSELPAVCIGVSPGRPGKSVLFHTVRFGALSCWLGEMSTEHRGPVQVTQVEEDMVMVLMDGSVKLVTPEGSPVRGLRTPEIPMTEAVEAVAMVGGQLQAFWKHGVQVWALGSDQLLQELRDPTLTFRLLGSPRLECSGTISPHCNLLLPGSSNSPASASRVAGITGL

| IC50 | SMILES |
| --- | --- |
| in the range around 550 nM | CCOc1c(C#N)cnn2c(-c3ccc(Nc4ccc(N5CCC(O)CC5)cn4)c4c3CNC4=O)cnc12 [US11028085, Compound I-185] |
| < 100 nM | CN1CC(c2ccn3c(-c4ccc(Nc5ccc(N6CCC(O)CC6)cc5)c5c4CNC5=O)cnc3c2)C1 [US11028085, Compound I-411] |

From BindingDB's records for patent US11028085 (Nimbus Saturn, 2021)
